Assay results reported in patent US8003628B2, “Methods of inhibiting osteoclast activity” (The Trustees of The University of Pennsylvania, priority 1999, dated 2011).

Experiments:
osteoclast formation = target: osteoclast formation
Method: Cytochemical staining for TRAP is widely used for identifying osteoclasts in vivo and in vitro. Naphthol AS-MX phosphate 5 mg. Sigma, St. Louis, Mo.) is resolved in 0.5 ml of N,N-dimethylformamide (Wako). Thirty milligrams of fast red violet LB salt (Sigma) and 50 ml of 0.1 M sodium acetate buffer (pH 5.0) containing 50 mM sodium tartratet are added to the mixture (the TRAP-staining solution). Cells are fixed with 3.7% (v/v) formaldehyde in Ca^2−- and Mg^2+-free phosphate-buffered saline [PBS(−)] for 10 min. fixed again with ethanol-acetone (50:50, v:v) for 1 min. and incubated with the TRAP-staining solution for 10 min. at room temperature. TRAP-positive osteoclasts appear as red cells. The incubation period longer than 10 min. should be avoided since cells other than osteoclasts become weakly positive with time. After staining, cells are washed with distilled water, and TRAP-positive multinucleated cells having three or more nuclei are counted as osteoclasts under a microscope.

[1] = system: TRANCE-induced marrow cultures; experiment: TRANCE-induced marrow cultures; assay type: cell-based; settings: reciprocal dose-dependence of WP9QY and TRANCE
Method: This peptide (5-500 μM) was tested for its effect on osteoclast formation using the co-culture system induced by 1,250H2D3 and PGE2. […] There was a reciprocal dose-dependence of WP9QY and TRANCE. Thus, WP9QY is capable of interfering not only with TNF/TNF receptor (1) interaction but also with RANK Ligand/RANK interaction, thereby decreasing the osteoclastogenic potential of this cytokine.

L929 lymphocytes = settings: Takasaki et al. 1997; cited from earlier work
[2] = target: TNF-related activation-induced cytokine (TRANCE); experiment: cell-based or functional assay

CC(C)C[C@@H]1NC(=O)[C@H](Cc2ccc(O)cc2)NC(=O)[C@H](CCC(N)=O)NC(=O)[C@H](CO)NC(=O)[C@H](Cc2c[nH]c3ccccc23)NC(=O)[C@@H](NC(=O)[C@@H](N)Cc2ccc(O)cc2)CSSC[C@@H](C(=O)N[C@@H](Cc2ccc(O)cc2)C(=O)O)NC1=O [WP9QY]
IC50 osteoclastogenesis relative to IC50 TNF/TNF receptor (1) interaction (osteoclast formation; 250 μM vs 5 μM): 50 fold
effect on osteoclastogenesis (osteoclast formation; co-culture system, peptide 5-500 μM): dose- and time-dependently inhibited
IC50 (osteoclast formation; read-out: IC50, inhibition of osteoclastogenesis, co-culture system induced by 1,250H2D3 and PGE2, peptide 5-500 μM): 250 µM
effect on TRANCE-induced marrow cultures [1]: inhibits TRANCE-induced marrow cultures
antagonism of effects of TNF-binding to TNF-α receptor (1) (L929 lymphocytes): efficiently antagonized

WP9QY (peptide)
osteoclast formation in the co-culture system induced by 1,25(OH)2D3 and PGE2 (IC50) [2]: 250 µM
